{
  "source": "patent US20100004248A1",
  "about": "“Use of a Nitric Oxide Synthase Modulator for the Treatment of Cardiac Indications” (priority 2005, published 2010)",
  "key": {"[1]": {"test_system": "Adult myocytes isolated from wild-type C57/B16 mouse hearts", "experiment": "Sarcomere shortening of isolated adult myocytes exposed to isoproterenol", "type": "cell-based"}, "[2]": {"test_system": "intact heart, beta-adrenergic stimulation by ISO", "experiment": "Contractility response of intact heart to isoproterenol (ISO)", "type": "in vivo, mouse", "description": "Regulation of acute beta-adrenergic stress by PDE5a inhibition (resulting in a rise in cGMP and activation of protein kinase G) requires the activity of nitric oxide synthase (NOS). […] This can be offset by chronic distal activation of the NO target protein soluble guanylate cyclase 9sGC). At the left are bars depicting the contractility response of an intact heart to ISO before and after co-administration of SIL. The ISO response is normally blunted by nearly 80%. The middle bars show data from mice with NOS inhibited by L-NAME (1 mg/L in drinking water). […] However, if one continues to treat hearts with the soluble guanylate cyclase activator (BAY 41-8543) for a week-all the while continuing NOS inhibition with L-NAME, the ability of SIL to suppress adrenergic stimulation is restored."}, "Protein kinase G": {"test_system": "Protein kinase G", "experiment": "Protein kinase G activity in 9-week TAC hearts", "type": "in vivo, mouse", "settings": "treatment during weeks 5-9", "description": "Protein kinase G activity increased nominally over time in 9-week TAC hearts, although this falls just short of statistical significance. […] Rather, the prior data supports an effect on reducing oxidant stress and re-coupling nitric oxide synthase."}},
  "data": [
    {"smiles": "CCCc1nn(C)c2c(=O)[nH]c(-c3cc(S(=O)(=O)N4CCN(C)CC4)ccc3OCC)nc12", "note": "[Sildenafil, sildenafil]", "values": [
      {"measurement": "ability to blunt the isoproterenol response", "setting": "[1]; myocytes from hypertrophied and dilated hearts (3-4 weeks TAC), p=0.04", "value": "markedly diminished"},
      {"measurement": "blunting of isoproterenol-increased sarcomere shortening", "setting": "[1]; wild-type myocytes, isoproterenol 10 micromolar, sildenafil 0.1", "value": "~25", "unit": "%"},
      {"measurement": "blunting of ISO contractility response", "setting": "[2]; intact heart, co-administration of SIL", "value": "~80", "unit": "%"},
      {"measurement": "inhibition of ISO response with NOS inhibited", "setting": "[2]; mice given L-NAME 1 mg/L in drinking water for 1 week", "value": "no longer inhibited"},
      {"measurement": "PKG activity", "setting": "Protein kinase G", "value": "significantly increased"}
    ]}
  ]
}
